# Patent US8906925B2, “Pyrido[4,3-B]indoles containing rigid moieties” (Medivation Technologies, Inc., priority 2008, dated 2014)
# Target: T1, human recombinant serotonin 5-HT1B receptor (Homo sapiens, UniProt P28222)
# T1 construct: expressed in transfected cells; host or cells: CHO-K1 cell line, membrane extracts
# Test: 5-HT1B radioligand binding competition assay ([3H]5-CT, CHO-K1 membranes)
# Conditions: 5 μM, in duplicate, average
# Procedure: To determine the binding activity at the human recombinant serotonin 5-HT1B receptor of compounds of the invention, CHO-K1 cell line expressing the human 5-HT1B recombinant receptor was amplified to prepare membranes used for the radioligand binding assay throughout the study. Radioligand binding competition on 5-HT1B was performed by adding successively in the wells of a 96 well plate (Master Block, Greiner, 786201). […] The plate was incubated 60 min at 25° C. in a water bath and then filtered over GF/B filters (Perkin Elmer, 6005177, presoaked in 0.5% PE1 for 2 h at room temperature) with a Filtration unit (Perkin Elmer). The filters were washed 3× with 0.5 mL of ice-cold washing buffer (50 mM Tris pH 7.4). 50 μL Microscint 20 (Packard) was added and the plate was incubated 15 min on an orbital shaker and then counted with a TopCount™ for 1 min/well.
# The reference value thus obtained for the test was compared to a historical value obtained from the same receptor and used to validate the experimental session. […] For replicate determinations, the maximum variability tolerated in the test was of +/−20% around the average of the replicates.
# Compounds were tested for binding activity in the radioligand binding competition assay on human 5-HT1B receptor, at one concentration […], in duplicate. Dose-response data from test compounds were analyzed with XLfit (IDBS) software using nonlinear regression applied to a sigmoidal dose-response model.
# Dose-response data was analyzed with XLfit (IDBS) software using non-linear regression applied to a sigmoidal dose-response model.
# T1 sequence (P28222 whole entry): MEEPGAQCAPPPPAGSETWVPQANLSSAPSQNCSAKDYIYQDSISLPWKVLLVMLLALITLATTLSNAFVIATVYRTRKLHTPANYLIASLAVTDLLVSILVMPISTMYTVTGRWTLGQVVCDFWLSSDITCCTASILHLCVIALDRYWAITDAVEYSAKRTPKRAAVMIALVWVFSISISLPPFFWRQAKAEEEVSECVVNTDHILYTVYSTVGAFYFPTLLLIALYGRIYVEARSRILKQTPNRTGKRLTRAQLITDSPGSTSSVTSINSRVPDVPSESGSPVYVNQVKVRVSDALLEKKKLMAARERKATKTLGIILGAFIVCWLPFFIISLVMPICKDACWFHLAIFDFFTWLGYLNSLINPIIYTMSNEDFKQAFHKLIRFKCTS
smiles,measurement,value
"COc1ccc(C(C)(O)Cn2c3c(c4cc(C)ccc42)CN(C)CC3)cc1 (stereo not shown) [Compound 174, 1-(2,8-dimethyl-3,4-dihydro-1H-pyrido[4,3-b]indol-5(2H)-yl)-2-(4-methoxyphenyl)propan-2-ol]",5-HT1B (5 μM) % Binding relative to bound radioligand,16%
